From ChEMBL document CHEMBL6071186, “Design, Synthesis, and Structural Evaluation of Acetylated Phenylthioketone Inhibitors of HDAC10” (ACS Med Chem Lett, 2024)

Key:
[1] = molecular target: T1, Polyamine deacetylase HDAC10 (Homo sapiens) (UniProt Q969S8); details: dose 500.0 µM
T1 sequence (whole entry): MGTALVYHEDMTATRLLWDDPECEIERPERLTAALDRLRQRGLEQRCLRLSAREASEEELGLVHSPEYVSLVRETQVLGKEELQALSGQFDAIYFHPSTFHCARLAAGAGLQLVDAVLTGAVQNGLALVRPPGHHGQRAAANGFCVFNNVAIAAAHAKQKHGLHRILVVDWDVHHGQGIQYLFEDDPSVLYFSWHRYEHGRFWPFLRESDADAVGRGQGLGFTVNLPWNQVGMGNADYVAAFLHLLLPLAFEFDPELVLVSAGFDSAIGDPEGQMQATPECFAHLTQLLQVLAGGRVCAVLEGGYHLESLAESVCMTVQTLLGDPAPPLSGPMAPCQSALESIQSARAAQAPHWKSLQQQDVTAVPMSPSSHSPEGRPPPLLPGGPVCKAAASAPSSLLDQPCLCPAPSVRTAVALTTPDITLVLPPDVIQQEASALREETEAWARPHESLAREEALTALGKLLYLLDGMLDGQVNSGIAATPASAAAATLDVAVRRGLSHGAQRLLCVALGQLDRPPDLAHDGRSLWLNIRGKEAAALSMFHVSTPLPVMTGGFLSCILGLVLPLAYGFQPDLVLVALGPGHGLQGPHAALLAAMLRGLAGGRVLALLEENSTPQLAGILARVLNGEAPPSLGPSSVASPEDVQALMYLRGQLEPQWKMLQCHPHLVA
Description: Binding affinity to humanized HDAC10 (A24E to D94A residues) (unknown origin) extracted from Danio rerio assessed as change in melting temperature at 500 uM by differential scanning fluorimetry analysis

[2] = molecular target: T1, Polyamine deacetylase HDAC10 (Homo sapiens); details: dose 500.0 µM; remark: listed apart in the source
Description: Binding affinity to humanized HDAC10 (A24E to D94A residues) (unknown origin) extracted from Danio rerio assessed as thermal stability by measuring melting temperature at 500 uM by differential scanning fluorimetry analysis (Rvb = 47.8+/-0.1degreeC)

- ΔTm [1]: 17.7 °C
- Tm [2]: 65.5 °C
SMILES: CN1CCc2c(c3ccccc3n2Cc2ccc(C(=O)NO)cc2)C1
